Drawing on US7205309B2, “Quinazoline derivatives” (Hoffmann-La Roche Inc., priority 2002, dated 2007), this text covers IC50 for two compounds.

This assay addresses T1, recombinant mouse NPY5-receptor (mNPY5) (Mus musculus, UniProt O70342).
T1 construct: The full-length cDNA encoding the mouse NPY5 (mNPY5) receptor was amplified from mouse brain cDNA; expressed in transfected cells; membranes used
T1 sequence (O70342 1-466): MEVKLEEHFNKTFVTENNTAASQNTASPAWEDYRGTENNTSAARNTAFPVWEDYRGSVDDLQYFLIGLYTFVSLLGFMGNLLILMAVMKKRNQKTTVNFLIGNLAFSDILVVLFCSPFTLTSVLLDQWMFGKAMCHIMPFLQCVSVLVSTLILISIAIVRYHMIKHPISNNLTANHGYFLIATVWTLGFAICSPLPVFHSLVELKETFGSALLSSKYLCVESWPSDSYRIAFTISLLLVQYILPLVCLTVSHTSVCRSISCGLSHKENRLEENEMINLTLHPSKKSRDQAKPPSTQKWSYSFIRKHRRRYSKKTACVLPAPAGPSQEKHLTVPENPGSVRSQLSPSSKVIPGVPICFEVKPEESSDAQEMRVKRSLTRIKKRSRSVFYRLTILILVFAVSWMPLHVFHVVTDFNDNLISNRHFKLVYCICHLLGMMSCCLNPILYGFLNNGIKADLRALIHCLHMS
Put plainly: Radioligand competition binding. To be noted: membranes of HEK293 cells expressing mNPY5; 100 pM [125I]labeled peptide YY; 1 h at 22° C.; read-out: NPY5-R (mouse) IC50. The text has this: The full-length cDNA encoding the mouse NPY5 (mNPY5) receptor was amplified from mouse brain cDNA using specific primers, designed based on the published sequence, and Pfu DNA-Polymerase. The amplification product was subcloned into the mammalian expression vector pcDNA3 using Eco RI and XhoI restriction sites. Positive clones were sequenced and one clone, encoding the published sequence was selected for generation of stable cell clones.
Human embryonic kidney 293 (HEK293) cells were transfected with 10 μg mNPY5 DNA using the lipofectamine reagent. Two days after transfection, geneticin selection (1 mg/ml) was initiated and several stable clones were isolated. One clone was further used for pharmacological characterization.
Human embryonic kidney 293 cells (HEK293), expressing recombinant mouse NPY5-receptor (mNPY5) were broken by three freeze/thawing cycles in hypotonic Tris buffer (5 mM, pH 7.4, 1 mM MgCl2), homogenized and centrifuged at 72,000×g for 15 min. The pellet was washed twice with 75 mM Tris buffer, pH 7.4, containing 25 mM MgCl2 and 250 mM sucrose, 0.1 mM phenylmethylsulfonylfluoride and 0.1 mM 1,10-pheneanthrolin, resuspended in the same buffer and stored in aliquots at −80° C. Protein was determined according to the method of Lowry using bovine serum albumine (BSA) as a standard. […]

Broadly, the IC50 is the point on the concentration scale where inhibition reaches its midpoint. With `Cc1nc(N2CCCC2)c2ccc(NCC(C)C)cc2n1` [Compound 24, isobutyl-(2-methyl-4-pyrrolidin-1-yl-quinazolin-7-yl)-amine], the IC50 turned out to be 3 nM. On to `Cc1nc(N2CCCC2)c2ccc(OCc3ccc(C#N)cc3)cc2n1` [Compound 3, 4-(2-methyl-4-pyrrolidin-1-yl-quinazolin-7-yloxymethyl)-benzonitrile], for which the IC50 turned out to be 9 nM.
